No end group written: not given here.

The text below walks through data of article PMC3158843 (ACS chemical biology, 2011).

Assay [1] deals with HeLa cells. As to the kind of experiment: Mitochondrial membrane potential, JC-1. The format is cell-based.
Assay [2] relates to JNK phosphorylation in HeLa cells. Kind of assay: JNK phosphorylation in anisomycin-treated HeLa cells, Western blot. Type of assay: cell-based. The note with it: 25µM anisomycin.
For assay [3], the system named is JNK on mitochondria of HeLa cells. The format is cell-based.
The subject of assay [4] is c-jun phosphorylation in HeLa cells. As to the kind of experiment: c-jun phosphorylation in anisomycin-treated HeLa cells, Western blot. The format is cell-based. The conditions noted are these: 25µM anisomycin, 0-120 min.
Assay [5] relates to HeLa cells. The note with it: 25µM anisomycin, 4 hours.
For assay [6], the target named is T1, JNK3α1 (Homo sapiens, UniProt P53779).
In assay [7] the target is JNK1α1 (active, recombinant) (human) (UniProt P45983).
The next assay relates to JNK. The note with it: cited from earlier work.
Assay [8] has as its target T1, JNK3α1. As to the kind of experiment: Kinase-Glo phosphorylation assay, JNK3α1. The conditions noted are these: 4-parameter nonlinear regression, 30°C, 60 min. The format is biochemical.
Assay [9] concerns the target T1, JNK3α1. Kind of assay: Fluorescence polarization assay for peptide binding.
Assay [10] concerns recombinant JNK1α1 / mitochondria of JNK-null fibroblasts. Further details: species or system murine. The note with it: TI-JIP 1µM, Tat-SabKIM1 10µM.
Assay [11] concerns HeLa cells. As to the kind of experiment: Cytochrome c release, ELISA. The format is cell-based. The conditions noted are these: 25µM anisomycin 4 hours; Tat-SabKIM1 10µM, TI-JIP 1µM, siRNA 50nM.
For assay [12], the system named is JNK on mitochondria of HeLa cells. The conditions noted are these: N-acetylcysteine; earlier data, ref "Recent data from our lab"; cited from earlier work.

With `COc1ccc(C[C@H]2NC[C@H](O)[C@H]2OC(C)=O)cc1` [anisomycin], the “increase in percent depolarized mitochondria” value in the assay with HeLa cells [1] (25µM anisomycin, 45 min, vs DMSO-treated cells) is listed as 40–50%. Further, in assay [2] (0-120 min), the “JNK phosphorylation” value is “increased JNK phosphorylation between 15 and 30 minutes, and then JNK phosphorylation decreased after 30 minutes”. For the same compound, the “total JNK abundance” value in [2] (two hour time course) is listed as “unchanged”. In addition, the “phospho-JNK on the mitochondria” value in assay [3] (25µM anisomycin) is “as early as 5 minutes and peaked at 30 minutes”. Moreover, in assay [3] (25µM anisomycin stress), the “Sab abundance on the mitochondria” value is “did not have altered abundance”. In addition, in assay [3] (25µM anisomycin, Western blot), the “JNK species found on the mitochondria” value was “only the 54kDa species was found on the mitochondria”. In [4], the “c-jun levels” value was “remained constant” and the “c-jun phosphorylation on serine 73” value is listed as “increased at 15–30 minutes, peaking at 45–60 min, then decreasing following 60 minutes”. The compound further yielded a cell death in the assay with HeLa cells [5] of 50%. For the same compound, the decrease in viability in the assay with HeLa cells [5] (vs DMSO-treated cells) is ~ 50%.
In the assay with JNK3α1 [6], Tat-TI-JIP (peptide) showed an IC50 of inhibition of JNK3α1 phosphorylation of ATF2 (Kinase-Glo assay) of 27 nM, an IC50 of inhibition of JNK3α1 phosphorylation of Sab protein (Kinase-Glo assay) of 18 nM and an IC50 of inhibition of JNK3α1 phosphorylation of c-jun (Kinase-Glo assay) of 38 nM. Further, the IC50 of inhibition of JNK1α1 phosphorylation of c-jun (1–79) (Kinase-Glo assay) in assay [7] stood at 34 nM.
Turning to “Sab KIM1 peptide: Sab KIM1 motif examined earlier as an inhibitor of JNK mediated c-jun phosphorylation (GFESLSVPSPLDLSGPRVVAPPRRRQRRKKRG; not fully specified; retro-inverso configuration; C-terminal amide (-NH2))”, the “impact on c-jun phosphorylation” value with JNK (ref [18]) was “did not impact c-jun phosphorylation”.
Regarding AVVRPGSLDLR [Sab KIM1 motif], the “inhibition of JNK phosphorylation of c-jun / transcription factors” value with JNK (ref [15]) is given as “little, if any impact”.
Take YGRKKRRQRRRRPKRPTTLNLF-NH2 [Tat-TI-JIP]: the “mitochondrial membrane potential (MMP) dissipation” value with HeLa cells [1] (JC-1, 25µM anisomycin 45 min, Tat-SabKIM1 10µM, TI-JIP 1µM, siRNA 50nM) is on record as “decreased the amount of mitochondria with dissipating MMP”. Also, the IC50 is 18 ± 9 nM against JNK3α1 [8] (IC50 -vs-Sab, JNK3α1, substrate Sab) and 38 ± 12 nM against JNK3α1 [8] (IC50 -vs-c-jun, JNK3α1, substrate c-jun). At JNK (read-out: Ki, inhibition of JNK activity versus ATF-2, ref [19], [20]), the Ki is 25 nM. In addition, the “inhibition of JNK catalytic activity with respect to substrate binding” value in the assay on JNK (ref [19]–[21]) is “potent inhibitor”. The Kd on JNK3α1 [9] is 450 ± 60 nM. Further, at JNK3α1 [9] (greater affinity for JIP peptide vs Sab peptide, fluorescence polarization), the “affinity of JNK3α1 compared to the Sab peptide” value was 25 -fold. The “Sab expression on mitochondria of HeLa cells with peptide” value in [3] (25µM anisomycin 30 min, TI-JIP 1µM, Tat-SabKIM1 10µM) is recorded as “without impacting Sab expression”. The “levels of Sab on isolated mitochondria” value in assay [10] was “did not alter the levels of Sab”. In addition, the “cytochrome c release from the mitochondria” value in the assay with HeLa cells [11] is listed as “capable of reducing cytochrome c release”.
As for `CC(=O)N[C@@H](CS)C(=O)O` [N-acetylcysteine], the “JNK translocation to the mitochondria” value in assay [12] was “inhibits JNK translocation to the mitochondria”.
